Test results published in PubChem BioAssay (NCI).
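96-well plates; 48 h exposure; 5 concentrations. Endpoints by linear interpolation between flanking doses. Not reached: highest tested concentration assigned. Here, GI50 denotes the concentration required for 50% inhibition of growth. TGI: concentration producing complete growth inhibition.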

Key:
Assay in all cases: DTP human tumour cell line panel, 48 h
DMS 273 small cell lung = test system: DMS 273 small cell lung
CAKI-1 renal = test system: CAKI-1 renal
UACC-62 melanoma = test system: UACC-62 melanoma
SNB-75 CNS = test system: SNB-75 CNS
HCT-116 colon = test system: HCT-116 colon
A498 renal = test system: A498 renal
MDA-MB-231 breast = test system: MDA-MB-231 breast
MCF7 breast = test system: MCF7 breast
BT-549 breast = test system: BT-549 breast
T-47D breast = test system: T-47D breast

Row | SMILES | TGI (DMS 273 small cell lung) [µM] | TGI (CAKI-1 renal) [µM] | TGI (UACC-62 melanoma) [µM] | TGI (SNB-75 CNS) [µM] | TGI (HCT-116 colon) [µM] | TGI (A498 renal) [µM] | TGI (MDA-MB-231 breast) [µM] | TGI (MCF7 breast) [µM] | TGI (BT-549 breast) [µM] | TGI (T-47D breast) [µM] | GI50 (A498 renal) [µM] | GI50 (MDA-MB-231 breast) [µM] | GI50 (MCF7 breast) [µM] | GI50 (SNB-75 CNS) [µM] | GI50 (CAKI-1 renal) [µM] | GI50 (UACC-62 melanoma) [µM] | GI50 (HCT-116 colon) [µM] | GI50 (BT-549 breast) [µM] | GI50 (T-47D breast) [µM]
1 | O=C(N/C(=C\c1ccccc1[N+](=O)[O-])c1nc2ccccc2[nH]1)c1ccccc1 | > 100 | > 100 | > 100 | – | – | – | – | – | – | – | – | – | – | – | – | – | – | – | –
2 | CC1SC(c2ccccc2)N(Nc2c3ccccc3nc3ccccc23)C1=O (configuration not stated) | > 100 | > 100 | > 100 | > 100 | > 100 | – | – | – | – | – | – | – | – | – | – | – | – | – | –
3 | COc1ccc(-c2cc(-c3ccccc3)n(C3OCC(OC(C)=O)C(OC(C)=O)C3OC(C)=O)c(=S)c2C#N)cc1 (configuration not stated) | – | > 100 | > 100 | > 100 | > 100 | > 100 | > 100 | > 100 | > 100 | > 100 | – | – | – | – | – | – | – | – | –
4 | COc1cc(-c2n/c(=C\c3c(O)[nH]c4ccc(Cl)cc34)cc3c2=Nc2ccccc2-3)cc(OC)c1OC | – | 6.72 | 3.42 | 4.84 | 0.595 | 4.71 | 3.12 | 1.38 | 7.45 | 3.21 | 1.76 | 1.47 | 0.316 | 1.72 | 1.97 | 1.8 | 0.232 | 2.43 | 1.28
5 | C=C(C)[C@@H]1CC[C@]2(C)CC[C@]3(C)[C@H](CC[C@@H]4[C@@]5(C)CC[C@H](OC(=O)c6ccccc6)C(C)(C)[C@@H]5CC[C@]43C)[C@@H]12 | – | > 100 | > 100 | > 100 | > 100 | > 100 | > 100 | > 100 | > 100 | > 100 | – | – | – | – | – | – | – | – | –
6 | Nc1ccc2c(c1)C1=NNC(=O)CC1C2 (configuration not stated) | > 100 | > 100 | > 100 | > 100 | > 100 | > 100 | – | > 31.6 | – | – | – | – | – | – | – | – | – | – | –
7 | CCn1nc(C)c2c1C(=O)NC(C)C(=O)N2 (configuration not stated) | – | > 100 | > 100 | > 100 | > 100 | > 100 | – | – | > 100 | – | – | – | – | – | – | – | – | – | –
8 | COc1ccc(NS(=O)c2ccc(-c3ccccc3)cc2)cc1 (configuration not stated) | – | > 100 | – | 62.5 | > 100 | – | > 100 | > 100 | – | – | – | – | – | – | – | – | – | – | –
